According to ChEMBL document CHEMBL1137031, “Synthesis and antibacterial activity of C-6 carbamate ketolides, a novel series of orally active ketolide antibiotics” (2004):
In brackets after ≈: the same amount, converted by molar mass.

Legend:
Mus musculus [1] = assay: Effective dose against Staphylococcus aureus infected murine was tested after subcutaneous injection; format: functional; conditions: sc
Mus musculus [2] = species on record: Mus musculus; assay: Effective dose against Staphylococcus aureus infected murine was tested after peroral injection; format: functional
Staphylococcus aureus [3] = assay: Minimum inhibitory concentration against Staphylococcus aureus OC4172 in presence of mouse serum; format: functional
Staphylococcus aureus [4] = assay: Minimum inhibitory concentration against Staphylococcus aureus OC4172; format: functional
Mus musculus [5] = assay: Percent survival of Staphylococcus aureus infected murine was tested after peroral injection of 20 mg/kg dose; format: functional; conditions: route oral
Mus musculus [6] = assay: Percent survival of Staphylococcus aureus infected murine was tested after subcutaneous injection of 10 mg/kg dose; format: functional; conditions: sc
Haemophilus influenzae = assay: Minimum inhibitory concentration against Haemophilus influenzae OC4482
Streptococcus pneumoniae [7] = assay: Minimum inhibitory concentration against Streptococcus pneumoniae OC4051
Streptococcus pneumoniae [8] = assay: Minimum inhibitory concentration against Streptococcus pneumoniae OC4421
Streptococcus pneumoniae [9] = assay: Minimum inhibitory concentration against Streptococcus pneumoniae OC9132
[10] = test system: Staphylococcus haemolyticus; assay: Minimum inhibitory concentration against Staphylococcus haemolyticus OC3882
[11] = test system: Staphylococcus haemolyticus; assay: Minimum inhibitory concentration against Staphylococcus haemolyticus OC4545

SMILES | ED50 (Mus musculus [1]) | ED50 (Mus musculus [2]) | MIC (Staphylococcus aureus [3]) | MIC (Staphylococcus aureus [4]) | survival at 20 mg/kg (Mus musculus [5]) | survival at 10 mg/kg (Mus musculus [6]) | MIC (Haemophilus influenzae) | MIC (Streptococcus pneumoniae [7]) | MIC (Streptococcus pneumoniae [8]) | MIC (Streptococcus pneumoniae [9]) | MIC [10] | MIC [11]
CC[C@H]1OC(=O)C(C)C(=O)[C@H](C)[C@@H](O[C@@H]2O[C@H](C)C[C@H](N(C)C)[C@H]2O)[C@](C)(OC(=O)N/C=C/c2ccc(-c3cnccn3)cc2)C[C@@H](C)C(=O)[C@H](C)[C@H]2NC(=O)O[C@@]21C (stereo partly specified) | 4.8 mg/kg | 17 mg/kg | 0.25 µg/mL | 0.12 µg/mL (≈ 0.146 µM) | 62% | 100% | 4 µg/mL (≈ 4.87 µM) | 0.06 µg/mL (≈ 0.073 µM) | 0.12 µg/mL (≈ 0.146 µM) | 0.03 µg/mL (≈ 0.0365 µM) | 0.25 µg/mL (≈ 0.304 µM) | > 16 µg/mL
CC[C@H]1OC(=O)C(C)C(=O)[C@H](C)[C@@H](O[C@@H]2O[C@H](C)C[C@H](N(C)C)[C@H]2O)[C@](C)(OC(=O)N/C=C/c2ccc3cccnc3c2)C[C@@H](C)C(=O)[C@H](C)[C@H]2NC(=O)O[C@@]21C (stereo partly specified) |  |  | 0.5 µg/mL | 0.12 µg/mL (≈ 0.151 µM) | 0% | 40% | 2 µg/mL (≈ 2.52 µM) | 0.03 µg/mL (≈ 0.0377 µM) | 0.03 µg/mL (≈ 0.0377 µM) | ≤ 0.01 µg/mL | 0.25 µg/mL (≈ 0.314 µM) | > 16 µg/mL
CC[C@H]1OC(=O)C(C)C(=O)[C@H](C)[C@@H](O[C@@H]2O[C@H](C)C[C@H](N(C)C)[C@H]2O)[C@](C)(OC(=O)Nc2ccccc2)C[C@@H](C)C(=O)[C@H](C)[C@H]2NC(=O)O[C@@]21C (stereo partly specified) |  |  | 1 µg/mL | 2 µg/mL (≈ 2.79 µM) |  |  | 8 µg/mL (≈ 11.1 µM) | 8 µg/mL (≈ 11.1 µM) | 0.06 µg/mL (≈ 0.0836 µM) | 0.03 µg/mL (≈ 0.0418 µM) | > 16 µg/mL | > 16 µg/mL
CC[C@H]1OC(=O)C(C)C(=O)[C@H](C)[C@@H](O[C@@H]2O[C@H](C)C[C@H](N(C)C)[C@H]2O)[C@](C)(OC(=O)N/C=C/c2ccc(-c3cccnc3)cc2)C[C@@H](C)C(=O)[C@H](C)[C@H]2NC(=O)O[C@@]21C (stereo partly specified) |  |  | 1 µg/mL | 0.25 µg/mL (≈ 0.305 µM) |  |  | 4 µg/mL (≈ 4.87 µM) | 0.12 µg/mL (≈ 0.146 µM) | 0.25 µg/mL (≈ 0.305 µM) | 0.03 µg/mL (≈ 0.0365 µM) | 1 µg/mL (≈ 1.22 µM) | > 16 µg/mL
CC[C@H]1OC(=O)[C@H](C)C(=O)[C@H](C)[C@@H](O[C@@H]2O[C@H](C)C[C@H](N(C)C)[C@H]2O)[C@](C)(OC)C[C@@H](C)C(=O)[C@H](C)[C@H]2N(CCCCn3cnc(-c4cccnc4)c3)C(=O)O[C@]12C [TELITHROMYCIN] | 4.4 mg/kg | 15 mg/kg | 0.5 µg/mL | 0.12 µg/mL (≈ 0.148 µM) |  |  | 2 µg/mL (≈ 2.46 µM) | 0.06 µg/mL (≈ 0.0739 µM) | 0.12 µg/mL (≈ 0.148 µM) | ≤ 0.01 µg/mL | 0.25 µg/mL (≈ 0.308 µM) | > 16 µg/mL
CC[C@H]1OC(=O)C(C)C(=O)[C@H](C)[C@@H](O[C@@H]2O[C@H](C)C[C@H](N(C)C)[C@H]2O)[C@](C)(OC(=O)N/C=C/c2ccc(-n3cccn3)cc2)C[C@@H](C)C(=O)[C@H](C)[C@H]2NC(=O)O[C@@]21C (stereo partly specified) | 7.1 mg/kg | > 30 mg/kg | 0.25 µg/mL | 0.12 µg/mL (≈ 0.148 µM) | 60% | 80% | 4 µg/mL (≈ 4.94 µM) | 0.06 µg/mL (≈ 0.0741 µM) | 0.06 µg/mL (≈ 0.0741 µM) | 0.03 µg/mL (≈ 0.037 µM) | 0.12 µg/mL (≈ 0.148 µM) | > 16 µg/mL
CC[C@H]1OC(=O)C(C)C(=O)[C@H](C)[C@@H](O[C@@H]2O[C@H](C)C[C@H](N(C)C)[C@H]2O)[C@](C)(OC(=O)NCCCc2ccccc2)C[C@@H](C)C(=O)[C@H](C)[C@H]2NC(=O)O[C@@]21C (stereo partly specified) |  |  | 8 µg/mL | 2 µg/mL (≈ 2.63 µM) |  |  | 16 µg/mL (≈ 21.1 µM) | 1 µg/mL (≈ 1.32 µM) | 0.12 µg/mL (≈ 0.158 µM) | 0.06 µg/mL (≈ 0.079 µM) | 2 µg/mL (≈ 2.63 µM) | > 16 µg/mL
CC[C@H]1OC(=O)C(C)C(=O)[C@H](C)[C@@H](O[C@@H]2O[C@H](C)C[C@H](N(C)C)[C@H]2O)[C@](C)(OC(=O)N/C=C/c2ccc(-c3ccccn3)cc2)C[C@@H](C)C(=O)[C@H](C)[C@H]2NC(=O)O[C@@]21C (stereo partly specified) |  |  | 0.5 µg/mL | 0.12 µg/mL (≈ 0.146 µM) | 20% | 80% | 4 µg/mL (≈ 4.87 µM) | 0.06 µg/mL (≈ 0.0731 µM) | 0.06 µg/mL (≈ 0.0731 µM) | 0.03 µg/mL (≈ 0.0365 µM) | 0.12 µg/mL (≈ 0.146 µM) | > 16 µg/mL
CC[C@H]1OC(=O)[C@H](C)[C@@H](O[C@H]2C[C@@](C)(OC)[C@@H](O)[C@H](C)O2)[C@H](C)[C@@H](O[C@@H]2O[C@H](C)C[C@H](N(C)C)[C@H]2O)[C@](C)(O)C[C@@H](C)C(=O)[C@H](C)[C@@H](O)[C@]1(C)O [ERYTHROMYCIN] |  |  | 0.06 µg/mL | 0.5 µg/mL (≈ 0.681 µM) |  |  | 4 µg/mL (≈ 5.45 µM) | > 16 µg/mL | 4 µg/mL (≈ 5.45 µM) | 0.06 µg/mL (≈ 0.0818 µM) | > 16 µg/mL | > 16 µg/mL
CC[C@H]1OC(=O)C(C)C(=O)[C@H](C)[C@@H](O[C@@H]2O[C@H](C)C[C@H](N(C)C)[C@H]2O)[C@](C)(OC(=O)N/C=C/c2ccc3ccccc3n2)C[C@@H](C)C(=O)[C@H](C)[C@H]2NC(=O)O[C@@]21C (stereo partly specified) |  |  | 0.5 µg/mL | 0.25 µg/mL (≈ 0.314 µM) | 25% | 75% | 4 µg/mL (≈ 5.03 µM) | 0.03 µg/mL (≈ 0.0377 µM) | 0.06 µg/mL (≈ 0.0755 µM) | ≤ 0.01 µg/mL | 0.25 µg/mL (≈ 0.314 µM) | > 16 µg/mL
CC[C@H]1OC(=O)C(C)C(=O)[C@H](C)[C@@H](O[C@@H]2O[C@H](C)C[C@H](N(C)C)[C@H]2O)[C@](C)(OC(=O)NCc2ccccc2)C[C@@H](C)C(=O)[C@H](C)[C@H]2NC(=O)O[C@@]21C (stereo partly specified) |  |  | 8 µg/mL | 4 µg/mL (≈ 5.47 µM) |  |  | 16 µg/mL (≈ 21.9 µM) | 8 µg/mL (≈ 10.9 µM) | 0.25 µg/mL (≈ 0.342 µM) | 1 µg/mL (≈ 1.37 µM) | > 16 µg/mL | > 16 µg/mL
CC[C@H]1OC(=O)C(C)C(=O)[C@H](C)[C@@H](O[C@@H]2O[C@H](C)C[C@H](N(C)C)[C@H]2O)[C@](C)(OC(=O)N/C=C/c2ccc(-c3ccccc3)cc2)C[C@@H](C)C(=O)[C@H](C)[C@H]2NC(=O)O[C@@]21C (stereo partly specified) |  |  | 2 µg/mL | 0.5 µg/mL (≈ 0.61 µM) |  |  | 8 µg/mL (≈ 9.76 µM) | 0.5 µg/mL (≈ 0.61 µM) | 0.25 µg/mL (≈ 0.305 µM) | 0.06 µg/mL (≈ 0.0732 µM) | 1 µg/mL (≈ 1.22 µM) | > 16 µg/mL
CC[C@H]1OC(=O)C(C)C(=O)[C@H](C)[C@@H](O[C@@H]2O[C@H](C)C[C@H](N(C)C)[C@H]2O)[C@](C)(OC(N)=O)C[C@@H](C)C(=O)[C@H](C)[C@H]2NC(=O)O[C@@]21C (stereo partly specified) |  |  | 1 µg/mL | 4 µg/mL (≈ 6.23 µM) |  |  | 2 µg/mL (≈ 3.12 µM) | > 16 µg/mL | 2 µg/mL (≈ 3.12 µM) | 2 µg/mL (≈ 3.12 µM) | > 16 µg/mL | > 16 µg/mL
CC[C@H]1OC(=O)C(C)C(=O)[C@H](C)[C@@H](O[C@@H]2O[C@H](C)C[C@H](N(C)C)[C@H]2O)[C@](C)(OC(=O)NCCc2ccccc2)C[C@@H](C)C(=O)[C@H](C)[C@H]2NC(=O)O[C@@]21C (stereo partly specified) |  |  | 2 µg/mL | 1 µg/mL (≈ 1.34 µM) |  |  | 8 µg/mL (≈ 10.7 µM) | 2 µg/mL (≈ 2.68 µM) | 0.12 µg/mL (≈ 0.161 µM) | 0.25 µg/mL (≈ 0.335 µM) | 4 µg/mL (≈ 5.36 µM) | > 16 µg/mL
CC[C@H]1OC(=O)C(C)C(=O)[C@H](C)[C@@H](O[C@@H]2O[C@H](C)C[C@H](N(C)C)[C@H]2O)[C@](C)(OC(=O)N/C=C/c2ccccc2)C[C@@H](C)C(=O)[C@H](C)[C@H]2NC(=O)O[C@@]21C (stereo partly specified) |  |  | 2 µg/mL | 0.25 µg/mL (≈ 0.336 µM) |  |  | 4 µg/mL (≈ 5.38 µM) | 0.5 µg/mL (≈ 0.672 µM) | 0.06 µg/mL (≈ 0.0807 µM) | 0.06 µg/mL (≈ 0.0807 µM) | 4 µg/mL (≈ 5.38 µM) | > 16 µg/mL
CC[C@H]1OC(=O)C(C)C(=O)[C@H](C)[C@@H](O[C@@H]2O[C@H](C)C[C@H](N(C)C)[C@H]2O)[C@](C)(OC(=O)N/C=C/c2ccc(-n3ccnc3)cc2)C[C@@H](C)C(=O)[C@H](C)[C@H]2NC(=O)O[C@@]21C (stereo partly specified) |  |  | 0.25 µg/mL | 0.12 µg/mL (≈ 0.148 µM) | 0% | 60% | 4 µg/mL (≈ 4.94 µM) | 0.12 µg/mL (≈ 0.148 µM) | 0.25 µg/mL (≈ 0.309 µM) | ≤ 0.01 µg/mL | 1 µg/mL (≈ 1.23 µM) | > 16 µg/mL
CC[C@H]1OC(=O)C(C)C(=O)[C@H](C)[C@@H](O[C@@H]2O[C@H](C)C[C@H](N(C)C)[C@H]2O)[C@](C)(OC(=O)N/C=C/c2ccc(-c3ccncc3)cc2)C[C@@H](C)C(=O)[C@H](C)[C@H]2NC(=O)O[C@@]21C (stereo partly specified) |  |  | 2 µg/mL | 0.5 µg/mL (≈ 0.609 µM) |  |  | 8 µg/mL (≈ 9.74 µM) | 0.5 µg/mL (≈ 0.609 µM) | 0.12 µg/mL (≈ 0.146 µM) | 0.03 µg/mL (≈ 0.0365 µM) | 2 µg/mL (≈ 2.44 µM) | > 16 µg/mL
CC[C@H]1OC(=O)C(C)C(=O)[C@H](C)[C@@H](O[C@@H]2O[C@H](C)C[C@H](N(C)C)[C@H]2O)[C@](C)(OC(=O)N/C=C/c2ccc(-c3ncccn3)cc2)C[C@@H](C)C(=O)[C@H](C)[C@H]2NC(=O)O[C@@]21C (stereo partly specified) | 1.8 mg/kg | 15 mg/kg | 0.25 µg/mL | 0.12 µg/mL (≈ 0.146 µM) | 40% | 100% | 4 µg/mL (≈ 4.87 µM) | 0.06 µg/mL (≈ 0.073 µM) | 0.06 µg/mL (≈ 0.073 µM) | 0.03 µg/mL (≈ 0.0365 µM) | 0.12 µg/mL (≈ 0.146 µM) | > 16 µg/mL
